Columns and labels:
BTK = BTK (Homo sapiens, UniProt Q06187); assay: Omnia assay for potency against BTK; type: biochemical; details: read-out: BTK Inhibition
Description: (§1) The protocol below describes continuous-read kinase assays to measure inherent potency of compounds against active forms of EGFR (WT) and EGFR (T790M/L858R) enzymes. The mechanics of the assay platform are best described by the vendor (Invitrogen, Carlsbad, Calif.) on their website at the following URL: http://www.invitrogen.com/content.cfm?pageid=11338 or http://www.invitrogen.com/site/us/en/home/Products-and-Services/Applications/Drug-Discovery/Target-and-Lead-Identification-and-Validation/KinaseBiology/KB-Misc/Biochemical-Assays/Omnia-Kinase-Assays.html.
(§2) Briefly, 10× stocks of EGFR-WT (PV3872) from Invitrogen and EGFR-T790M/L858R (40350) from BPS Bioscience, San Diego, Calif., 1.13×ATP (AS001A) and appropriate Tyr-Sox conjugated peptide substrates (KCZI001) were prepared in 1× kinase reaction buffer consisting of 20 mM Tris, pH 7.5, 5 mM MgCl2, 1 mM EGTA, 5 mM β-glycerophosphate, 5% glycerol (10× stock, KB002A) and 0.2 mM DTT (DS001A). 5 μL of each enzyme were pre-incubated in a Corning (#3574) 384-well, white, non-binding surface microtiter plate (Corning, NY) for 30 min. at 27° C. with a 0.5 μL volume of 50% DMSO and serially diluted compounds prepared in 50% DMSO. Kinase reactions were started with the addition of 45 μL of the ATP/Tyr-Sox peptide substrate mix and monitored every 30-90 seconds for 60 minutes at λex360/λem485 in a Synergy^4 plate reader from BioTek (Winooski, Vt.). At the conclusion of each assay, progress curves from each well were examined for linear reaction kinetics and fit statistics (R^2, 95% confidence interval, absolute sum of squares). Initial velocity (0 minutes to ˜30 minutes) from each reaction was determined from the slope of a plot of relative fluorescence units vs time (minutes) and then plotted against inhibitor concentration to estimate IC50 from log [Inhibitor] vs Response, Variable Slope model in GraphPad Prism from GraphPad Software (San Diego, Calif.).
The Omnia Assay Protocol for potency assessment against BTK is performed in a substantially similar manner as that described in Example 25 above except that the modified BTK-optimized reagent conditions are: • [BTK]=5 nM, [ATP]=[…], [Y5-Sox]=[…] (ATP KMapp ˜[…]).

EGFR (WT) = target: T1, EGFR (WT) (Homo sapiens, UniProt P00533); assay: Omnia continuous-read kinase assay, EGFR (WT); type: biochemical; details: read-out: EGFR inhibtion
T1 construct: purchased Invitrogen PV3872
Description: as §1, §2
(§3) The EGFR-WT- and EGFR T790M/L858R-modified optimized reagent conditions are: • [EGFR-WT]=5 nM, [ATP]=[…], [Y12-Sox]=[…]; and [EGFR-T790M/L858R]=3 nM, [ATP]=[…], [Y12-Sox]=[…].

ITK = target: T2, ITK (Homo sapiens, UniProt Q08881); assay: Omnia assay for potency against ITK; type: biochemical; details: read-out: ITK inhibition
T2 sequence (Q08881 1-620): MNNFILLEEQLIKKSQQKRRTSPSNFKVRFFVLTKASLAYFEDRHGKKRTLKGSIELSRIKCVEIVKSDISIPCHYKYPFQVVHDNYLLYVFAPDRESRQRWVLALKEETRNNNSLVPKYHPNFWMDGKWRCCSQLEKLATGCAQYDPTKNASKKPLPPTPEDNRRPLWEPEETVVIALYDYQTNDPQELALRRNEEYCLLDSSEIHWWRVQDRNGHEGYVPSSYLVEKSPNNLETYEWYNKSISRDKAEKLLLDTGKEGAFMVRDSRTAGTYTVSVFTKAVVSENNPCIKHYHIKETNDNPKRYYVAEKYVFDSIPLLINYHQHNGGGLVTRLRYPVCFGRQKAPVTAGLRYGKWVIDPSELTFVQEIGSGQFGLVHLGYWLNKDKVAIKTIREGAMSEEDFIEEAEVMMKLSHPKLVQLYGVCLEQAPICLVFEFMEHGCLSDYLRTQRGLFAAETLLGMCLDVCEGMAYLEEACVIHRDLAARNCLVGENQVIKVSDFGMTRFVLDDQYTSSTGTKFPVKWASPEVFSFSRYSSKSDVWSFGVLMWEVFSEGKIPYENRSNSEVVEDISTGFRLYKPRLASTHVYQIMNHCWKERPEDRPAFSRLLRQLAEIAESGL
Description: as §1, §2
This example describes continuous-read kinase assays to measure inherent potency of compound against active forms of ITK enzymes as described in Example 10 above except that the modified ITK-optimized reagent conditions are: • [ITK]=10 nM, [ATP]=25 μM, [Y6-Sox]=10 μM (ATP KMapp=33 μM).

ErbB1 = ErbB1 (Homo sapiens, UniProt P00533); assay: Z'-LYTE biochemical assay, ErbB1 kinase inhibition; details: @ 1 μM
Experimental: Compounds of the present invention were assayed as inhibitors of one or more of ErbB1, ErbB2, and/or ErbB4 in a manner substantially similar to the method described by Invitrogen Corp (Invitrogen Corporation, 1600 Faraday Avenue, Carlsbad, Calif., CA; http://www.invitrogen.com/downloads/Z-LYTE_Brochure—1205.pdf) using the Z′-LYTE™ biochemical assay procedure or similar biochemical assay. The Z′-LYTE™ biochemical assay employs a fluorescence-based, coupled-enzyme format and is based on the differential sensitivity of phosphorylated and non-phosphorylated peptides to proteolytic cleavage.

EGFR (T790M/L858R) = target: T3, EGFR (T790M/L858R) (Homo sapiens, UniProt P00533, L858R/T790M); assay: Omnia continuous-read kinase assay, EGFR (T790M/L858R); type: biochemical; details: read-out: EGFR (T790M/L858R) inhibiton
T3 construct: purchased BPS Bioscience 40350
Description: as §1, §2, §3

JAK3 = target: T4, JAK3 (Homo sapiens, UniProt P52333); assay: Omnia assay for potency against JAK3; type: biochemical; details: read-out: JAK3 Inhibition
T4 sequence (P52333 1-1124): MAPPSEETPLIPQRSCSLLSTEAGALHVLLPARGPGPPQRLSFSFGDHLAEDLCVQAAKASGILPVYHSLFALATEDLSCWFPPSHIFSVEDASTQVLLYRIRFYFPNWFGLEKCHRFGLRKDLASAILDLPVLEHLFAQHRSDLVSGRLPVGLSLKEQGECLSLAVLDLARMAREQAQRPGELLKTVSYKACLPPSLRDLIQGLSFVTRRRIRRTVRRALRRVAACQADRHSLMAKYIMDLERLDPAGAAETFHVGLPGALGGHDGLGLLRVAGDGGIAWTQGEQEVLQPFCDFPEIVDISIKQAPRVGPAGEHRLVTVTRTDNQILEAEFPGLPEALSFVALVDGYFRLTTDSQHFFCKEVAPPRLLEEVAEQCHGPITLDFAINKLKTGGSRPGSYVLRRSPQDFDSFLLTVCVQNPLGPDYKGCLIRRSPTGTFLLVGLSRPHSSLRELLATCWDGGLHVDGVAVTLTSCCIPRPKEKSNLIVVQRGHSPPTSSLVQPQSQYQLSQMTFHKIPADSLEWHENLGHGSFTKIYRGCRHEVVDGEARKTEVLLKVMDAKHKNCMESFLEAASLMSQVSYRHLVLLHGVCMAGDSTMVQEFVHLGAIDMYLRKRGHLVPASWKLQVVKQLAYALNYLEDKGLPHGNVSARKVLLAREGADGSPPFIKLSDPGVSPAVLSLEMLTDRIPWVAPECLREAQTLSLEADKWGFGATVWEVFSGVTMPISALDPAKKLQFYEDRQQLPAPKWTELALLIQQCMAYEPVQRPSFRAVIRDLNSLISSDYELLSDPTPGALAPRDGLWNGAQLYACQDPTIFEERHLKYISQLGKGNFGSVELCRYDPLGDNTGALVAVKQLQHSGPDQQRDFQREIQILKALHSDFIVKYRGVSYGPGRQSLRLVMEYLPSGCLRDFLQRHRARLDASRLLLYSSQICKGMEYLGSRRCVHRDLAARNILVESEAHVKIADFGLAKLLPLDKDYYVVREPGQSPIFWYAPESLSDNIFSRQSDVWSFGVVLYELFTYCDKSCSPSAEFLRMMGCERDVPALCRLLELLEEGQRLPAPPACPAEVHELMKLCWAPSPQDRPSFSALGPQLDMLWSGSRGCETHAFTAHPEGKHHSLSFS
Description: as §1, §2
The Omnia Assay Protocol for potency assessment against JAK3 is performed in a substantially similar manner as that described in Example 25 above except that the modified JAK3-optimized reagent conditions are: • [JAK3]=5 nM, [ATP]=5 μM, [Y12-Sox]=5 μM (ATP KMapp ˜[…]).

[1] = tested on: BTK signaling in Ramos cells; assay: BTK Ramos cellular assay (PLCγ2 phosphorylation); type: cell-based; details: Homo sapiens; for IC50: Ramos cells, PLCγ2 phosphorylation, read-out: BTK Inhibition
Experimental: Compounds 1-13 and (I-52) were assayed in Ramos human Burkitt lymphoma cells. Ramos cells were grown in suspension in T225 flasks, spun down, resuspended in 50 mls serum-free media and incubated for 1 hour. Compound was added to Ramos cells in serum free media to a final concentration of 1, 0.1, 0.01, or 0.001 μM. Ramos cells were incubated with compound for 1 hour, washed again and resuspended in 100 ul serum-free media. Cells were then stimulated with 1 μg of goat F(ab′)2 Anti-Human IgM and incubated on ice for 10 minutes to activate B cell receptor signaling pathways. After 10 minutes, the cells were washed once with PBS and then lysed on ice with Invitrogen Cell Extraction buffer. 16 μg total protein from lysates was loaded on gels and blots were probed for phosphorylation of the BTK substrate PLCγ2. […] Additional dose response inhibition of BTK signaling with I-13 is depicted in FIG. 9.

T3 sequence (P00533 25-1210 T790M/L858R): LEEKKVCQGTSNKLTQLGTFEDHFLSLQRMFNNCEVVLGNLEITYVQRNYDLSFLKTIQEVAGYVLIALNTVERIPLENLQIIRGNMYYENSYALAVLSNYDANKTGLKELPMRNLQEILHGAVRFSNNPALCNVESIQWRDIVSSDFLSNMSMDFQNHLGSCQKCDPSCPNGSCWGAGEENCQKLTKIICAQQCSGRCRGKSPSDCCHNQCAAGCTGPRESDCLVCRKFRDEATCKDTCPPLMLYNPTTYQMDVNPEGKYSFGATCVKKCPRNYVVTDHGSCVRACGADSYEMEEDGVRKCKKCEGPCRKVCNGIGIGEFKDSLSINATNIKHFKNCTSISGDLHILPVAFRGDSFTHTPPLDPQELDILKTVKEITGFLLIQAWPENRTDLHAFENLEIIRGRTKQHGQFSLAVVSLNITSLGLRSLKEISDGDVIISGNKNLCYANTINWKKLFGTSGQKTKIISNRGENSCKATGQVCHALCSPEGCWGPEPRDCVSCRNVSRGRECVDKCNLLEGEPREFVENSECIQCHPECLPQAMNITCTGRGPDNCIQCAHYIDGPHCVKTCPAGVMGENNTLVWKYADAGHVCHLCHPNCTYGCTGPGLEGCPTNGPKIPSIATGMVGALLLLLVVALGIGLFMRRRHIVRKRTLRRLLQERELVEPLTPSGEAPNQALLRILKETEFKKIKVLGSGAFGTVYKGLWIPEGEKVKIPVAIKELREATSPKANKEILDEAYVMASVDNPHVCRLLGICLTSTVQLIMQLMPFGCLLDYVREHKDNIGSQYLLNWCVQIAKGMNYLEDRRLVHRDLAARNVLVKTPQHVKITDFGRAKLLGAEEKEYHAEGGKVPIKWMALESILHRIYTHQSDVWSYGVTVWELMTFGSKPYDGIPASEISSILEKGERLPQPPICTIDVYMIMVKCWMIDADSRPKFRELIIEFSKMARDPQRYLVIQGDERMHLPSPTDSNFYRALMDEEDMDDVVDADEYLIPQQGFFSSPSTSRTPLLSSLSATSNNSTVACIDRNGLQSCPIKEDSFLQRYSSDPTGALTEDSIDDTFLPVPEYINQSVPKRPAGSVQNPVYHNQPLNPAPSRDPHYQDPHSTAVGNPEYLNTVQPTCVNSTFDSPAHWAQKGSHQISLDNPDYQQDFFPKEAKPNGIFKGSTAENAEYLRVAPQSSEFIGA
ErbB1, sequence (P00533 25-1210): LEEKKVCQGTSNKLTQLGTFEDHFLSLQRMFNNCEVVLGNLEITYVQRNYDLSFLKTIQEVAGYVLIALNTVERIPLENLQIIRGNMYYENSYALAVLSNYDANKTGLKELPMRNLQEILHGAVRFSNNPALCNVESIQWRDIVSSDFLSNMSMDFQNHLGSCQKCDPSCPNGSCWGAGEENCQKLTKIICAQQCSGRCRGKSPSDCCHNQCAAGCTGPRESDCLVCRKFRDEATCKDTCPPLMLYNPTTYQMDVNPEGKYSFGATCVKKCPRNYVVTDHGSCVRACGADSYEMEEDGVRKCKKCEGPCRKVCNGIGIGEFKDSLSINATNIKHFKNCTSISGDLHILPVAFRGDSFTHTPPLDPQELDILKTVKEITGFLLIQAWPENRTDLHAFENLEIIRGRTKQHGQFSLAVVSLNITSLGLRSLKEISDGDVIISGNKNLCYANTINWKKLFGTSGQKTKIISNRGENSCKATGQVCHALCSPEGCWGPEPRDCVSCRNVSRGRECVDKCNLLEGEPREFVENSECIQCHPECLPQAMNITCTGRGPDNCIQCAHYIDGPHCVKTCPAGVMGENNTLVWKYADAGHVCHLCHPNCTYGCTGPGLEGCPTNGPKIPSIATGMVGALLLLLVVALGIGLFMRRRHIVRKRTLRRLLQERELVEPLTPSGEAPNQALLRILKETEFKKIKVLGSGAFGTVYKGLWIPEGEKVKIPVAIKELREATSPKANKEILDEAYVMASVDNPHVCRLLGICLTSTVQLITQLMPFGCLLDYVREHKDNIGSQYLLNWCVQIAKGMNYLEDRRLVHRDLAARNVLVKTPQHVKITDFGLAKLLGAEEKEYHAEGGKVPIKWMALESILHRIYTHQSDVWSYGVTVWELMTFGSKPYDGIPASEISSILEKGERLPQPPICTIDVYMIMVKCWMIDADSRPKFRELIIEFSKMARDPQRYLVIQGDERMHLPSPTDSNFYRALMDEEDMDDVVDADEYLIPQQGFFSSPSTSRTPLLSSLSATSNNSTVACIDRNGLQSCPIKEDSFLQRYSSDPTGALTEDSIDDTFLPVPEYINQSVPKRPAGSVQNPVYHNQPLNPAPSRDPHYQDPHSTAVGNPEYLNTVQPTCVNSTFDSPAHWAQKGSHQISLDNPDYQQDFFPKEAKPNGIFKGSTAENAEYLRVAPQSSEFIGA
T1 sequence (P00533 25-1210): as above
BTK, sequence (Q06187 whole entry): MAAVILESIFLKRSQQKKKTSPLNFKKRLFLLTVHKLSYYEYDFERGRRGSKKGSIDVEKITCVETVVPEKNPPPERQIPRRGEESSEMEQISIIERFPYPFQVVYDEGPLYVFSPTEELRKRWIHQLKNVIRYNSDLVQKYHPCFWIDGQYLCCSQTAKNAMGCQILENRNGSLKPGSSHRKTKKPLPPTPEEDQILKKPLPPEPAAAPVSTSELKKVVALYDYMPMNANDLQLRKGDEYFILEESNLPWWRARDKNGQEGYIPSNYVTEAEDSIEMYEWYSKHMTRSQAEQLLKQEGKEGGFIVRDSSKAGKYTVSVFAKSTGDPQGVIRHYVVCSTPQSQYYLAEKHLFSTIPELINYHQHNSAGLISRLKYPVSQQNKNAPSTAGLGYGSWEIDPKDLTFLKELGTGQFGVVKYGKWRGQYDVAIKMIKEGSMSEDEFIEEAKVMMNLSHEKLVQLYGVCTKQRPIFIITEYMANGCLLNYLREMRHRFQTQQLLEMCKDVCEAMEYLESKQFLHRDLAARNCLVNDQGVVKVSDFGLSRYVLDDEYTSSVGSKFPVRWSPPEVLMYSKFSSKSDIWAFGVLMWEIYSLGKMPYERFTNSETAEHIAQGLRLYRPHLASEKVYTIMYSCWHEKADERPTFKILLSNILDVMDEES

| SMILES | IC50 (BTK) [nM] | IC50 (EGFR (WT)) [nM] | IC50 (ITK) [nM] | inhibition at 1 µM (ErbB1) [%] | IC50 (EGFR (T790M/L858R)) [nM] | IC50 (JAK3) [nM] | IC50 [1] [nM] | inhibition at 1 µM ([1]; Ramos, at 1 μM, 1 hour) [%] |
| --- | --- | --- | --- | --- | --- | --- | --- | --- |
| C=CS(=O)(=O)Nc1cccc(Nc2cc(Oc3cccc(C(F)(F)F)c3)ncn2)c1 [I-10] | 100 to 1000 | ≤ 10 | ≥ 10000 | 96 | 100 to 1000 | 100 to 1000 |  |  |
| C=CC(=O)Nc1cccc(Nc2cc(N3CCc4ccccc43)ncn2)c1 [I-14] | 100 to 1000 | ≤ 10 | 1000 to 10000 | 96 | 10 to 100 | ≤ 10 |  |  |
| C=CC(=O)Nc1cccc(Nc2cc(N(C)c3ccccc3)ncn2)c1 [I-15, N-{3-[6-(N-methyl-N-phenylamino)-pyrimidin-4-ylamino]phenyl}-2 propenamide] | 10 to 100 | ≤ 10 | 1000 to 10000 | 98 | 10 to 100 | 10 to 100 |  |  |
| CN(C)C/C=C/C(=O)Nc1cccc(Nc2cc(Nc3ccc(F)c(Cl)c3)ncn2)n1 [I-52] | ≤ 10 | ≤ 10 |  |  |  | ≤ 10 |  | 50 |
| C=CC(=O)Nc1cccc(Nc2cc(Oc3cccc(C)c3)ncn2)n1 [I-65)] |  |  |  |  |  |  | ≤ 10 |  |
| C=CC(=O)Nc1cccc(Nc2cc(Oc3ccc(Oc4ccccc4)cc3)ncn2)n1 [I-66)] |  |  |  |  |  |  | ≤ 10 |  |
| CC#CC(=O)c1cccc(Nc2cc(Nc3ccc(Oc4ccccc4)cc3)ncn2)c1 [I-88, 1-(3-(6-(4-phenoxyphenylamino)pyrimidin-4-ylamino)phenyl)but-2-yn-1-one] | ≤ 10 | ≤ 10 | 10 to 100 |  |  |  |  |  |

Further lines, with some results ahead:

| IC50 (BTK) [nM] | IC50 (EGFR (WT)) [nM] | IC50 (ITK) [nM] | inhibition at 1 µM (ErbB1) [%] | IC50 (EGFR (T790M/L858R)) [nM] | IC50 (JAK3) [nM] | IC50 [1] [nM] | SMILES | inhibition at 1 µM ([1]; Ramos, at 1 μM, 1 hour) [%] |
| --- | --- | --- | --- | --- | --- | --- | --- | --- |
| ≤ 10 | ≤ 10 | 100 to 1000 |  |  |  |  | CC=CC(=O)c1cccc(Nc2cc(Nc3ccc(Oc4ccccc4)cc3)ncn2)c1 (mixture of isomers) [I-89, (E,Z)-1-(3-(6-(4-phenoxyphenylamino)pyrimidin-4-ylamino)phenyl)but-2-en-1-one] |  |
| ≤ 10 | ≤ 10 | 100 to 1000 |  |  |  |  | C=CC(=O)Nc1cccc(Nc2cc(Oc3cccc(OC)c3)ncn2)n1 [I-90, N-(6-(6-(3-methoxyphenoxy)pyrimidin-4-ylamino)pyridine-2-yl)acrylamide] |  |
| ≤ 10 | ≤ 10 | ≥ 10000 |  |  |  | ≤ 10 | C=CC(=O)Nc1cccc(Nc2cc(Oc3ccc4c(c3)OCCO4)ncn2)n1 [I-95, N-(6-(6-(2,3-dihydrobenzo[b][1,4]dioxin-6-yloxy)pyrimidin-4-ylamino)pyridin-2-yl)acrylamide] |  |
| 100 to 1000 | ≤ 10 | ≥ 10000 |  |  |  |  | COc1ccc(NC(=O)/C=C/CN(C)CCCCNC(=O)OC(C)(C)C)cc1Nc1cc(Nc2ccc(F)c(Cl)c2)ncn1 [I-98] |  |
| ≤ 10 | ≤ 10 |  |  |  |  | ≤ 10 | COc1ccc(NC(=O)/C=C/CN(C)CCCCNC(=O)CCCC(=O)NCCCOCCOCCOCCCNC(=O)CCCC[C@@H]2SC[C@@H]3NC(=O)N[C@@H]32)cc1Nc1cc(Nc2ccc(F)c(Cl)c2)ncn1 [I-99, N^1-(4-(((E)-4-(3-(6-(3-chloro-4-fluorophenylamino)pyrimidin-4-ylamino)-4-methoxyphenylamino)-4-oxobut-2-enyl)(methyl)amino)butyl)-N^5-(15-oxo-19-((3aS,4S,6aR)-2-oxohexahydro-1H-thieno[3,4-d]imidazol-4-yl)-4,7,10-trioxa-14-azanonadecyl)glutaramide] |  |
| ≤ 10 | ≤ 10 | 100 to 1000 |  |  |  |  | C=CC(=O)Nc1cc(Nc2cc(Oc3ccc(Oc4ccccc4)cc3)ncn2)ccc1N1CCOCC1 [I-101, N-(2-morpholino-5-(6-(4-phenoxyphenoxy)pyrimidin-4-ylamino)phenyl)acrylamide] |  |

Reference: US9296704B2, “Substituted pyrimidines as protein kinase inhibitors” (CELGENE AVILOMICS RESEARCH, INC., priority 2007, dated 2016)
